Laboratory results reported in PMC8703450, “New Heterocyclic Combretastatin A-4 Analogs: Synthesis and Biological Activity of Styryl-2(3H)-benzothiazolones” (Pharmaceuticals, 2021).

Assays:
EA.hy926 cells [1] = experiment: MTT cytotoxicity / growth inhibition assay, EA.hy926; type: cell-based, human
Description: The endothelial cell line (EA.hy926) was kindly provided by Dr. C-J.S. Edgell—University of North Carolina, USA. Cells were cultured in 4.5 g/L D-Glucose DMEM/F12 medium, supplemented with 10% fetal bovine serum (FBS, Cytogen GmBH, Greven, Germany) and 100 U/mL penicillin and streptomycin (Lonza BioWhitaker, Verviers, Belgium). The other cell lines used are described in Table S3.1. Cell cultures were maintained in an incubator at 37 °C with 95% humidity and 5% CO2 and were routinely found free of mycoplasma.
All tested compounds were dissolved in DMSO at 25 mM initial concentration and diluted with medium to obtain the working concentrations (0.01 nM–250 µM). Serial drug dilutions were prepared in medium immediately before each experiment. The DMSO working concentration in the medium was […]. For the MTT assay, cells were seeded into 96-well microtitre plates at a density of 1 × 10^4 in 100 µL complete medium per well. They were further incubated for 24 h, followed by treatment with CA-4 analogs up to 72 h. Cell viability was determined using the MTT assay. Ten µL of MTT solution (5 mg/mL) was added to each well and further incubated for 3 h at 37 °C. To dissolve the formazan product, 100 µL/well of 99.5% isopropanol was added. Cell viability was determined by measuring absorbance at 550/630 nm using a DTX880 plate reader (Beckman Coulter, USA). Results, expressed as concentrations that inhibit 20% (IC20), 50% (IC50), and 80% (IC80) of cell growth, were calculated using GraphPad Prism 8.0.1.

EA.hy926 cells [2] = experiment: Matrigel tube disruption assay; type: cell-based, human; details: EA.hy926 on Matrigel, IC50 concentration, 24 h of treatment, compared with time 0
Description: The tube formation assay was performed in 96-well plates coated with 40 µL BD Matrigel™ (basement membrane matrix), following the manufacturer’s instruction (BD Biosciences). A total of 2 × 10^4 EA.hy926 cells was re-suspended in growth medium and added to each well in a final volume of 100 µL. Tube formation was visualized directly using a light microscope. Images were captured using a phase-contrast microscope and quantitation was performed using the WimTube application of the Wimasis online image analysis platform (https://www.wimasis.com/en/products/13/WimTube; accessed on 1 June 2021).

α,β-tubulin = experiment: In vitro quantification of polymeric vs. soluble tubulin fractions in EA.hy926 cells; type: cell-based, human; details: EA.hy926, 1 µM, 6 h; DMSO control 2.33 ± 0.14
Description: To assess the early effects on the microtubule cytoskeleton in vitro, EA.hy926 cells were cultured for 24 h in 6-cm dishes (3 × 10^5 cells). They were exposed to […] (control), 1 μM CA-4, paclitaxel, or increasing concentrations of 26Z (50, 100, 250, 2500, 10,000 nM) for 6 h. Cells were washed with PBS and lysed directly in the dishes with hypotonic lysis buffer (20 mM Tris-HCl, 1 mM MgCl2, 2 mM EGTA, 0.5% Triton X-100, glycerol 10%, pH 6.8), supplemented with protease inhibitors (2 μg/mL leupeptin, 2 μg/mL pepstatin, 0.4 mM Na vanadate, 0.5 mM PMSF, 1 mM DTT), for 3 min at 30 °C. The soluble fraction was immediately collected, mixed with 5× sample buffer, and boiled at 95 °C for 5 min. The polymerized fraction was collected directly from the culture dish following 10 min of incubation at room temperature with 1× sample buffer.
For the concentration-dependent assay, the cells were harvested by scraping and centrifuged at 1000 g for 5 min, and then lysed with the hypotonic cell lysis buffer for 10 min at room temperature. Tubulin fractions were obtained by centrifugation at 12,000 × g for 10 min.
Equal volumes of the samples were subjected to 10% SDS-PAGE followed by western blotting. Detection of β-tubulin content was accomplished with an anti-β-tubulin mouse monoclonal antibody (sc-101527, Santa Cruz Biotechnology).

EA.hy926 cells [3] = experiment: Clonogenic survival assay; type: cell-based, human; details: 72 h treatment + 6 days recovery; for decrease in colony number: EA.hy926, 250 nM; for reduction in colony formation: EA.hy926, 2.5, 10 and 25 µM
Description: EA.hy926 cells were seeded at 300 cells/well on a 6-well plate and incubated for 24 h. The cells were treated with different concentrations of test compounds for 72 h. After six additional days of growth in a fresh medium to form visible colonies, cells were washed with phosphate-buffered saline (PBS, pH 7.4) and stained with crystal violet (0.5%, w/v) in 6% glutaraldehyde. After 30 min of incubation, the plates were washed with tap water, dried, photographed, and analyzed using ImageJ [79]. Raw data were normalized to the corresponding DMSO control for each independent experiment. After normalization, statistically significant differences for colony-forming efficiency (CFE) values versus […] were calculated.

EA.hy926 cells [4] = experiment: In vitro cell migration (wound-healing) assay; type: cell-based, human; details: EA.hy926, 50 nM, 24 h
Description: A total of 3 × 10^5 EA.hy926 cells were seeded in a 12-well plate and grown close to the confluence. The cell monolayer was gently scraped with a P200 pipette tip, creating a wound area around 1-mm wide. Cells were washed twice with fresh medium and treated with test compounds diluted in growth media to the corresponding sub-toxic concentrations. Images were acquired at 0 and 24 h following treatment. After incubation for 24 h, the scratch wound width was measured and recorded, and then compared with the initial scratch wound width at 0 h. Using the ImageJ image processing program (ImageJ150-WIN-Java8), the size of the denuded area in pixels was determined at each time point from the digital images.

[5] = test system: rhodamine-labeled α,β-tubulin; experiment: Ex vivo rhodamine-tubulin polymerization (fluorescence microscopy); details: 20 μM, 37 °C, 45 min
Description: TAMRA-Tubulin (TL590M, Cytoskeleton) diluted in GTB buffer (PEM, 10% glycerol, 1 mM GTP) was mixed with unlabeled α,β-tubulin (T240, Cytoskeleton) at a ratio of 1:3 (v/v) to a concentration of 4.0 mg/mL. […] Samples were then centrifuged for 20 min at 30,000× g. The pellets were diluted in 6 µL PEM buffer, containing 1 mM GTP and 0.5% glutaraldehyde, mixed with anti-fade mounting media (P36934, Invitrogen, Eugene, USA), and examined under a confocal LSM 980 Airyscan microscope (Carl Zeiss AG, Oberkochen, Germany).

[6] = Homo sapiens, EA.hy 926, 72 h of treatment

With `COc1cc(/C=C\c2cccc3c2sc(=O)n3C)cc(OC)c1OC` [Compound 27Z, (E/Z)-3-Methyl-7-(3,4,5-Trimethoxystyryl)-2(3H)-Benzothiazolone] the IC50 (EA.hy926 cells [1]; [6]) was 0.3 ± 0.05 µM, the “reduction in cumulative tube length” value (EA.hy926 cells [2]) was ~ 70% and the “soluble vs. polymerized tubulin ratio” value (α,β-tubulin) was 1.82 ± 0.36. For the same molecule, the “decrease in colony number” value (EA.hy926 cells [3]) was 75%, the “reduction in colony formation” value (EA.hy926 cells [3]) was “about 100%” and the melting point was 155 to 156 °C. For the same molecule, the “remaining mean wound opened area” value (EA.hy926 cells [4]) was 3%.

`COc1cc(/C=C\c2cccc3sc(=O)n(C)c23)cc(OC)c1` [Compound 17Z, (Z)-4-(3,5-Dimethoxystyryl)-3-methyl-2(3H)-benzothiazolone] gave an IC50 (EA.hy926 cells [1]; [6]) of 19.5 ± 2.71 µM.

In the case of `COc1ccc(/C=C\c2ccc3sc(=O)n(C)c3c2)cc1` [Compound 19Z, (Z)-5-(4-Methoxystyryl)-3-methyl-2(3H)-benzothiazolone], the IC50 (EA.hy926 cells [1]; [6]) is reported as 12 ± 2.49 µM.

In the case of `COc1cc(/C=C\c2ccc3sc(=O)n(C)c3c2)cc(OC)c1` [Compound 21Z, (Z)-5-(3,5-Dimethoxystyryl)-3-methyl-2(3H)-benzothiazolone], the IC50 (EA.hy926 cells [1]; [6]) is reported as 10.8 ± 0.62 µM.

Work on `COc1cc(/C=C\c2ccc3sc(=O)n(C)c3c2)cc(OC)c1OC` [Compound 22Z, (Z)-3-Methyl-5-(3,4,5-trimethoxystyryl)-2(3H)-benzothiazolone] yielded an IC50 (EA.hy926 cells [1]; [6]) of 9.43 ± 0.92 µM.

For `COc1cc(/C=C\c2ccc3c(c2)sc(=O)n3C)cc(OC)c1` [Compound 25Z, (Z)-6-(3,5-Dimethoxystyryl)-3-methyl-2(3H)-benzothiazolone], the IC50 (EA.hy926 cells [1]; [6]) was 1.88 ± 0.18 µM, the “decrease in colony number” value (EA.hy926 cells [3]) was 55% and the “reduction in colony formation” value (EA.hy926 cells [3]) was “about 100%”. The “remaining mean wound opened area” value (EA.hy926 cells [4]) was 22.4%.

Molecule `COc1ccc(/C=C\c2ccc3sc(=O)n(C)c3c2)cc1OC` [Compound 20Z, (Z)-5-(3,4-Dimethoxystyryl)-3-methyl-2(3H)-benzothiazolone] has an IC50 (EA.hy926 cells [1]; [6]) of 14.6 ± 1.75 µM.

For `COc1ccc(/C=C\c2ccc3c(c2)sc(=O)n3C)cc1OC` [Compound 24Z, (Z)-6-(3,4-Dimethoxystyryl)-3-methyl-2(3H)-benzothiazolone], the IC50 (EA.hy926 cells [1]; [6]) was 9.28 ± 1.13 µM.

For `COc1ccc(/C=C\c2cccc3sc(=O)n(C)c23)cc1` [Compound 15Z, (E/Z)-4-(4-Methoxystyryl)-3-Methyl-2(3H)-Benzothiazolone], the IC50 (EA.hy926 cells [1]; 72 h of treatment) was 22 ± 4.57 µM.

In the case of `COc1cc(/C=C\c2cccc3sc(=O)n(C)c23)cc(OC)c1OC` [Compound 18Z, (Z)-3-Methyl-4-(3,4,5-trimethoxystyryl)-2(3H)-benzothiazolone], the IC50 (EA.hy926 cells [1]; [6]) is reported as 15.6 ± 1.16 µM.

For `COc1cc(/C=C/c2ccc3c(c2)sc(=O)n3C)cc(OC)c1OC` [Compound 26E, (E/Z)-3-Methyl-6-(3,4,5-Trimethoxystyryl)-2(3H)-Benzothiazolone], the IC50 (EA.hy926 cells [1]; 72 h of treatment) was 38.2 ± 5.35 µM.

For `CC(=O)O[C@H]1C(=O)[C@@]2(C)[C@H]([C@H](OC(=O)c3ccccc3)[C@]3(O)C[C@H](OC(=O)[C@H](O)[C@@H](NC(=O)c4ccccc4)c4ccccc4)C(C)=C1C3(C)C)[C@]1(OC(C)=O)CO[C@@H]1C[C@@H]2O` [paclitaxel, reference compound], the “soluble vs. polymerized tubulin ratio” value (α,β-tubulin) was 0.51 ± 0.19 and the “fluorescent microtubule fiber formation” value [5] was “promoted the formation of microtubule fibers”.

With `COc1ccc(/C=C\c2cccc3sc(=O)n(C)c23)cc1OC` [Compound 16Z, (Z)-4-(3,4-Dimethoxystyryl)-3-methyl-2(3H)-benzothiazolone] the IC50 (EA.hy926 cells [1]; [6]) was 25.8 ± 3.11 µM.

Work on `COc1ccc(/C=C\c2ccc3c(c2)sc(=O)n3C)cc1` [Compound 23Z, (Z)-6-(4-Methoxystyryl)-3-methyl-2(3H)-benzothiazolone] yielded an IC50 (EA.hy926 cells [1]; [6]) of 19.8 ± 3.45 µM.
